The values that follow come from US20230413823A1, “HYPERLOADED YEAST CELL WALL PARTICLE AND USES THEREOF” (priority 2022, published 2023).

Values after ≈ are worked out from the molar mass of the structure shown. Read-outs that look alike come from different tables or passages of the source.

The conditions of data set [1]: Table 21, cited from earlier work.
A short description of data set [2]: Payload encapsulation (loading) efficiency in YPs by HPLC. Format: physicochemical. As to the method: Samples of YP-GET (10 μL, 10 mg YP/mL) were stained with Nile red (2 μL, 0.1 mg/mL) and fluorescein labeled concanavalin-A (FITC ConA, 2 μL, 0.1 mg/mL) to qualitatively assess loading by the fluorescence microscopy of the encapsulated fluorescent terpene-Nile red complex in the FITC ConA labeled yeast particle. Nile red was imaged using a rhodamine (red) filter (maxi-mum excitation/emission wavelengths at 550/570 nm) and FITC-ConA was imaged with a green filter at 490/520 nm. Microscopy images were collected with an Olympus BX60 upright compound fluorescent microscope. YP GET samples (100 mg) were centrifuged to collect excess liquid (free terpene and water) and the pellet fraction was resuspended in 10 mL of 90% methanol-10% water to extract encapsulated terpenes. Terpenes were quantified by HPLC operated with 32 KARAT™ software version 7.0 (Beckman Coulter, Inc, Brea, CA, USA), using a Waters […]® C18 column (3.5 μm, 4.6×150 mm) with acetonitrile:water 50:50 as mobile phase, flow rate at 1 mL/min, injection volume of 10 μL, and terpene detection at 254 nm. […] The quantification of terpenes was done by measuring the peak area and interpolating the concentration using a calibration curve obtained with terpene standards.
Terpenes were mixed with water and YPs from two different manufacturers and incubated at room temperature for 48 hours and encapsulation efficiency of terpenes in YPs was measured as described above after incubation at room temperature for 2 days.
Dry YPs from two different manufacturers were mixed with water (0.5mL water/g YP) for 30 minutes to obtain a uniform hydrated YP suspension. Limonene was added to the YP sample and incubated at 40° C. for one week to allow for complete limonene loading. Loading efficiency was quantitatively measured by the basic HPLC procedure described above using assay details listed in Table 10 and qualitatively assessed by fluorescence microscopy as described before. Particle diameter was measured as described before.
Dry YPs from two different manufacturers were mixed with water (0.5 to 2.5 mL water/g YP) for 30 minutes to obtain a uniform hydrated YP suspension. […] Loading efficiency was quantitatively measured by the basic HPLC procedure described above using assay details listed in Table 12 and qualitatively assessed by fluorescence microscopy as described above. Particle diameter was measured as described above.
Dry YPs from two different manufacturers were mixed with water (2.5 to 5 mL water/g YP) for 30 minutes to obtain a uniform hydrated YP suspension. Triallate was added to the YP sample and incubated at 40° C. for 3 to 7 days to allow for complete loading. Loading efficiency was quantitatively measured by the basic HPLC procedure described above using assay details listed in Table 14 and qualitatively assessed by fluorescence microscopy as described before. Particle diameter was measured as described before.
Dry GLPs/YPs were mixed with water (0.5 to 4.5 mL water g GLP/YP) for 30 minutes to obtain a uniform hydrated YP suspension. THC was added to the GLP/YP sample and incubated at 23° C. for 48 hours to allow for complete THC loading. Loading efficiency was quantitatively measured by the basic HPLC procedure described above using assay details listed in Table 16 and qualitatively assessed by fluorescence microscopy as described above. Particle diameter was measured as described above.
Two different kinds of dry YPs were mixed with water (0.5 to 4.5 mL water/g YP) for 30 minutes to obtain a uniform hydrated YP suspension. λCy was added to the YP sample and incubated at 55° C. for one week to allow for complete λCy loading. Loading efficiency was quantitatively measured by the basic HPLC procedure described above using assay details listed in Table 18 and qualitatively assessed by fluorescence microscopy as described before. Particle diameter was measured as described before.
PTP is highly soluble in acetone and dichloromethane. […]

The conditions of data set [3]: cited from earlier work; for water/octanol partition coefficient (log P): chemical and physical properties tables.
The conditions of data set [4]: cited from earlier work.
The nature of data set [5]: Solubility in organic loading and leave-in solvents.
The test system of another data set is Candida albicans SC5134. Description: Antimicrobial microplate assay (MIC 75%). Format: cell-based. As to the method:
The antimicrobial activity of YP-GET was evaluated using a modified published microplate assay procedure (Sultanbawa, Y.; Cusack, A.; Currie, M.; Davis, C. An Innovative Microplate Assay to Facilitate the Detection of Antimicrobial 538Activity in Plant Extracts. J. Rapid Meth. Aut. Mic. 2009, 17 (4), 519-534. haps://doi.org/10.111/j.1745-4581.2009.00187.x). Samples of YP-GET were suspended in 100 μL of growth medium (LB 395was used in antibacterial assays and YPD in antifungal assays) and added to the first row 396 (Row A) of a 96-well plate (all wells in the 96-well plate contain additional 100 μL medium). Serial dilutions (1:1) were performed by transferring 100 μL from Row A to Row B, etc., and finally removing 100 μL from Row H. Diluted Escherichia coli Top10 (Invitrogen, Carlsbad CA), Staphylococcus aureus ATCC 19636 or Candida albicans SC5134 cells (100 μL, […]) were added to all wells of the plate. Initial (t=0) and final (t=16 h, 37° C.) absorbance readings were taken at 650 nm.

In another data set the test system is H. pylori. Conditions: concentration of 2 mg/L; cited from earlier work.
For the next data set, the system named is S. cerevisiae. Conditions: cited from earlier work.
The subject of the next data set is C. albicans. Conditions: cited from earlier work.
Data set [6] is described as follows: Payload release from YPs upon dilution in water (HPLC of supernatant). The class given is physicochemical. As to the method: Sustained payload release from YPs occurs by payload diffusion out of the particles and is a function of the payload's solubility in water. […] Samples were incubated at room temperature. Amount of triallate released from the particles into the supernatant was quantified by HPLC as described before.
λCy-YP samples loaded at a w/w λCy:YP ratio of 1:1 were diluted in water ±surfactant (1% w/v IGEPAL) at target λCy concentrations of 0.001, 0.01, 0.1 and 1 mg/mL. Samples were incubated at room temperature for 3 hours. Supernatant was collected to measure amount of λCy released from the particles. The amount of λCy was quantified by HPLC as described above.
PTP-YP samples prepared without leave in solvent or with leave-in solvent GET424 or DMDA. Samples carrying PTP:YP weight ratio 1:1, PTP:GET:YP ratio of 1:1:1 or PTP:DMDA:YP ratio of 1:1:1 were diluted in water at a target PTP concentration of 0.001, 0.01, 0.1 and 1 mg/mL. Samples were incubated at room temperature. Supernatant was collected to measure amount of payload released from the particles.

A further data set is described as follows: physchem. To be noted: organic solvent or mixture.
The mark [7] stands for this setting: chemical and physical properties tables.

On to `OC(Cc1ccccc1Cl)(Cn1nc[nH]c1=S)C1(Cl)CC1` (stereo not drawn) [prothioconazole], for which the “Solubility DMSO” value in data set [1] (DMSO) was 126000 µg/mL (≈ 366 mM). In addition, the “Solubility Acetone” value in data set [1] (acetone) is 444000 µg/mL (≈ 1290 mM). Besides, the “Solubility Ethyl acetate” value in data set [1] (ethyl acetate) is 220000 µg/mL (≈ 639 mM). In addition, the encapsulation efficiency result in data set [2] (PRO:YP ratios up to 3:1, three loading cycles, acetone) was “more than 83%”. Besides, the “water/octanol partition coefficient (log P)” value in data set [3] is 4.05. The “Solubility Water” value in data set [4] (Table 21) was 22.5 µg/mL (≈ 0.0654 mM).

By solubility is commonly meant the concentration that dissolves in the medium under given conditions. For the compound `C=C(C)[C@@H]1CCC(C)=C[C@H]1c1c(O)cc(CCCCC)cc1O` [CBD, cannabidiol], the “encapsulation efficiency” value is recorded as “high encapsulation efficiency” in [2] (3:1 (CBD+OA):GLP ratio, OA leave-in solvent) and “high encapsulation efficiency” in data set [2] (CBD:YP weight ratios up to 5:1, multiple loading cycles, GLPs). For the same compound, the solubility in data set [5] (DMSO, organic solvent or mixture) is 200000 µg/mL (≈ 636 mM); in data set [5] (GET424, organic solvent or mixture) it was 10000 µg/mL (≈ 31.8 mM). For the same compound, the “CBD Solubility Ethanol” value in data set [5] (ethanol) is reported as “Miscible at 1:1 weight ratio*”. Also, the “CBD Solubility Methanol” value in data set [5] (methanol) is “Miscible at 1:1 weight ratio*”. Further, the “CBD Solubility Octanoic Acid (OA)” value in data set [5] (octanoic acid) is recorded as “Miscible at 0.5:1 CBD:OA ratio”.

On to `OC(Cn1cncn1)(Cn1cncn1)c1ccc(F)cc1F` [Fluconazole], for which the “fold lower concentration than YP GET to reach MIC 75%” value in the data set on Candida albicans SC5134 came to 10 fold.

For orientation: Log P means the decadic logarithm of the partition coefficient of the neutral form, usually between octanol and water. `CC(C)=CCC/C(C)=C/CO` [Geraniol]: the “in vitro growth of H. pylori” value with H. pylori is reported as “inhibited”. Besides, in the data set with S. cerevisiae, the “growth of S. cerevisiae strains” value was “inhibit the growth”. Also, in data set [3] (water/octanol, Table 2), the “Log P” value is on record as 3.56. The “growth of C. albicans strains” value in the data set with C. albicans is “inhibit the growth”. The “Maximum solubility in water” value in [4] (Table 1) and in data set [4] (terpenes in the GET composition) was 686 µg/mL throughout. For the same compound, the “Solubility in Water” value in data set [4] (Table 2) was 686 µg/mL (≈ 4.45 mM).

Consider `CCCCCc1cc(O)c2c(c1)OC(C)(C)[C@@H]1CCC(C)=C[C@@H]21` [Tetrahydrocannabinol (THC), Tetrahydrocannabinol, reference compound], for which, in data set [2] (THC:YP ratio of up to 5:1), the “loading efficiency” value is “high efficiency”. In addition, the “Log P” value in data set [3] (Table 1) was 5.9. In [3], the “water/octanol partition coefficient (log P)” value is on record as 5.9. In [4] (Table 1), the “Maximum solubility in water” value was 2.8 µg/mL. Further, the “Solubility in Water” value in data set [4] (setting [7]) was 2.8 µg/mL (≈ 0.0089 mM).

Take `CC(C)N(C(=O)SCC(Cl)=C(Cl)Cl)C(C)C` [Triallate]: the “triallate located inside YPs” value in data set [2] (triallate:YP w/w ratios up to 4:1, no solvent) is 94 -100%. Moreover, the “release of triallate from the YP” value in [6] (dilution to 0.001 mg/mL, triallate:YP 3:1 and 4:1) is approximately 100%.

Turning to `CC(C)CC(C)c1sccc1NC(=O)c1cn(C)nc1C(F)(F)F` (stereo not drawn) [PTP, Penthiopyrad], the “PTP release from YPs” value in data set [6] (DMDA leave-in solvent, PTP:DMDA:YP 1:1:1) is “improved release at 0.1 and 0.01 mg PTP/mL”; in data set [6] (GET424 leave-in solvent, PTP:GET:YP 1:1:1), “improved release at 0.01 mg PTP/mL”; in data set [6] (without a leave-in solvent, PTP:YP 1:1), “released from YPs only at a concentration above maximum solubility in water”. Further, in “physchem”, the solubility was 200000 µg/mL (≈ 556 mM).

On to `C=C(C)[C@H]1CC=C(C)CC1` [Limonene], for which the “loading efficiency” value in [2] (limonene:YP ratio of 3:1, both types of YPs) is “high efficiency”.

Regarding Clomazone, the “clomazone located inside YPs” value in data set [2] (clomazone:YP w/w ratios up to 5:1, no solvent) was 96-100%. The “Log P” value in data set [3] (Table 1) is 2.5. Moreover, the “water/octanol partition coefficient (log P)” value in data set [3] is given as 2.5.

In the case of `CC1(C)C(/C=C(\Cl)C(F)(F)F)[C@H]1C(=O)O[C@H](C#N)c1cccc(Oc2ccccc2)c1` (stereo partly drawn) [Lambda cyhalotrin], the payload encapsulation in data set [2] (λCy:YP ratios up to 5:1, no solvent) is on record as 77-90%. In data set [6] (dilution to 0.001 mg λCy/mL, λCy:YP 1:1, 3 hours room temperature), the “λCy release from YPs” value is “over 80%”. The lipophilicity (Log P) in data set [3] (Table 1) is recorded as 7.0. Further, the “water/octanol partition coefficient (log P)” value in data set [3] was 7.0. Further, the “Maximum solubility in water” value in data set [4] (Table 1) is 0.005 µg/mL. For the same compound, in [4] (setting [7]), the “Solubility in Water” value is 2.8 µg/mL (≈ 0.00622 mM).
